These results are taken from a melting point compilation (Tetko et al.; mined from patent text by program, amines drawn as free bases though some values may be those of a salt).

Usually melting point stands for the temperature of the solid-liquid transition.

Consider `CC(CO)c1ccc2c(=O)c3ccccc3ccc2c1` (centres undefined), for which the melting point was in the range of 63 to 66 °C.

Molecule `O=C(Nc1n[nH]c(=S)s1)N[C@@H](Cc1ccccc1)C(=O)N1CCN(c2ccccn2)CC1` registered a melting point of 220 to 222 °C.

`O=C(/C=C/C1CCCCC1)N1CCN(C(=O)c2cc(C(F)(F)F)cc(C(F)(F)F)c2)[C@H](Cc2c[nH]c3ccccc23)C1`: the melting point was in the range of 198 to 200 °C.

Molecule `COc1ccccc1Cc1ccc(N)c(C#N)c1` gave a melting point of 77.5 to 78.5 °C.

`CC1(CBr)SC2C(NC(=O)COc3ccccc3)C(=O)N2C1C(=O)O` (centres undefined) gave a melting point of 164 to 166 °C.

`CC(=O)N[C@@H](C)COc1ccc2nc(-c3ccc(OCC4CC4)c(Cl)c3)oc2c1` came in with a melting point of 156 to 159 °C.

For `CN1CCC(Oc2ccccc2)(c2ccccc2)CC1`, the melting point lay in the range of 99 to 101 °C.

Molecule `Cn1cc(CS(C)=O)c(=O)c2ccccc21` (centres undefined) returned a melting point of 93 to 95 °C.

`O=C1NC(=O)C(Cc2ccc(OCCN3c4ccccc4Sc4ccccc43)cc2)S1` (centres undefined) registered a melting point of 68 to 70 °C.

With `O=C(O)CCc1ccc(-c2ccccc2)cc1`, the melting point lay in the range of 143 to 149 °C.

Molecule `CCN1CCC(c2cccc(C(F)(F)F)c2)(C(C)(C)O)CC1` showed a melting point of 110 °C.

Regarding `C[C@H](NC(=O)OC(C)(C)C)C(=O)NCc1cccc(Nc2n[nH]c3ncnc(Nc4cccc(Cl)c4)c23)c1`, the melting point fell in the range of 150 to 153 °C.

The molecule `CCOC(=O)C1CCCN2CCC3c4cc(Cl)ccc4NC3C12` (centres undefined) had a melting point of 124 °C.

Regarding `NC(N)=NC(=O)c1ccccc1Sc1ccccc1C(=O)N=C(N)N`, the melting point is more than 220 °C.

`CN(C(=O)N[C@@H](Cc1ccc(NC(=O)c2c(Cl)cccc2Cl)cc1)C(=O)O)c1ccccc1C(=O)NCC1CCCCC1` registered a melting point of 201 °C.

Molecule `CC(C)(C)c1ccc2c(Cc3cccc4ccccc34)c3cc(C(C)(C)C)ccc3c(Cc3cccc4ccccc34)c2c1` gave a melting point of 285 °C.

The molecule `COc1cc(OC)nc(NC(=O)NS(=O)(=O)c2ncccc2OS(=O)(=O)N(C)C)n1` had a melting point of 155 to 157 °C.

In the case of `COc1ccc(OC)c(Cc2cccc(N)c2)c1`, the melting point was 81 to 84 °C.

`CNC(=O)N(O)C(C)c1cc(C(C)(C)C)c(O)c(C(C)(C)C)c1` (centres undefined) yielded a melting point of 159 to 160 °C.

In turn, `CCCCC(=O)NC1(c2ccc(C(C)C)cc2OC(=O)CCCC)C(=O)c2ccccc2C1=O` gave a melting point of 117 to 118 °C.

Molecule `CN(C)C=C1CCc2ccn(S(=O)(=O)c3ccccc3)c2C1=O` had a melting point of 116 to 118 °C.

For `CCOC(=O)Cc1ccc(C(=O)Cl)n1C`, the melting point lay within 52 to 54 °C.

For the molecule `COC(=O)Cn1c(=O)[nH]c2ccccc2c1=O`, the melting point was 205 to 206 °C.

Molecule `Cn1c(=O)c2cnccc2n(C)c1=O` yielded a melting point of 174 to 175 °C.

On to `CCn1c(C)nc(N2CCc3nc(N)sc3CC2)c([N+](=O)[O-])c1=O`, for which the melting point was more than 200 °C.

In the case of `O=C(O)c1nccn1C(c1ccccc1)c1ccccc1`, the melting point came out at 191 °C.

Turning to `CNC(=O)ON=C1n2ccnc2S(=O)C1(C)C` (centres undefined), the melting point lay in the range of 148 to 149 °C.

The molecule `C#Cc1ccc(C(=O)c2ccc3n2CCC3C(=O)OC)cc1` (centres undefined) showed a melting point of 113 to 114 °C.

With `CSc1ncc(CO)c(Nc2ccccc2)n1`, the melting point lay within 142 to 143 °C.

`CCCCC[C@H]1CC[C@H](C(=O)N[C@@H](C(=O)OCc2ccccc2)[C@@H](C)O)CC1` registered a melting point of 130 to 134 °C.

As to `Cc1cc(C)c2c(-c3cccc(Cl)c3)cc(=O)n(C)c2n1`, the melting point lay in the range of 161 to 162 °C.

As to `S=C(Nc1ccccc1Br)c1ccccc1`, the melting point fell in the range of 157 to 158 °C.

The molecule `Fc1ccc(-c2ccn(CC3CCCNC3)c2-c2ccncc2)cc1` (centres undefined) came in with a melting point of 134 to 135 °C.

For the molecule `COc1ccc2c(-c3ccc(Br)cc3)csc2c1`, the melting point lay within 102 to 104 °C.

`CCCCC(CC)COc1ccc2c(Br)c3cc(OCC(CC)CCCC)ccc3c(Br)c2c1` (centres undefined) gave a melting point of 103 to 105 °C.

The molecule `Cc1nn(-c2cc(OC(C)C)c(Cl)cc2Cl)c(=O)[nH]c1=O` came in with a melting point of 163 to 164 °C.

The molecule `Cc1cc(C)cc(OCC(=O)c2ccccc2)c1` came in with a melting point of 104 to 105 °C.

In turn, `NC(Cc1ccccc1)C(O)C(O)C(N)Cc1ccccc1` (centres undefined) yielded a melting point of 115 to 119 °C.

Take `O=C1C[C@H](C(=O)Nc2ccc(N3CCOCC3=O)cc2)N(C(=O)Nc2ccc(Cl)cc2)C1`: the melting point came out at 154 °C.

For the molecule `Cc1ccc(CNc2ccc3c(CNC(=O)c4ccc(F)cc4)cccc3n2)o1`, the melting point worked out at 173 °C.

Turning to `CCCC1(C(=O)O)CCCCC1`, the melting point was 58 to 59 °C.

The molecule `COc1ccc2c(c1)/C(=N\NC(N)=O)C(=O)N2CCN(C(C)C)C(C)C` registered a melting point of 157 to 159 °C.

With `COC(=O)NC(=O)n1cc(C(=O)c2ccn3c2CSC3c2cccnc2)c2ccc(OCc3ccccc3)cc21` (centres undefined), the melting point was in the range of 152 to 153 °C.

Molecule `OC1CC2(CCNC2)c2ccccc21` (centres undefined) returned a melting point of 155 to 158 °C.

In the case of `COC(=NO)c1cccc2[nH]cc(C=O)c12`, the melting point fell in the range of 178 to 179 °C.

Turning to `COc1cc2ccc(-c3ccc(C(=O)O)cc3)cc2cc1C(C)(C)C`, the melting point was 283 °C.

On to `CCCCCCOc1ccc(C(=O)CSc2ccnc3ccccc23)c(OC)c1`, for which the melting point lay within 88.5 to 89.5 °C.

Take `OCCOC(c1ccccc1)(c1ccccc1)c1ccccc1`: the melting point fell in the range of 103 to 106 °C.

The molecule `O=C(O)CCCc1ccc(NS(=O)(=O)c2ccc(Cl)cc2)cn1` showed a melting point of 178 to 180 °C.

In turn, `OC[C@@](O)(Cc1ccccc1)c1ccccc1` showed a melting point of 62 °C.

`COC(=O)c1cc(Cl)ccc1OCc1ccccc1` returned a melting point of 54.5 to 55 °C.

Molecule `CCN(CC)C(=O)c1nc(-c2ccc(Cl)cc2Cl)[nH]c1C(F)(F)F` had a melting point of 186 to 190 °C.

For the molecule `CCc1c(C(=O)C(C)C)c2ccc(-c3nnn[nH]3)cc2n1Cc1ccccc1Cl`, the melting point lay in the range of 160 to 163 °C.

Molecule `O=C(Cl)c1ccc(OCc2ccccc2)c(OCc2ccccc2)c1` showed a melting point of 92.5 to 94.5 °C.

With `CC1(C)Cc2c(N)c(Cl)cc(-c3nc(C4CCN(CCCC#N)CC4)no3)c2O1`, the melting point was determined as 151 °C.

On to `COC(=O)C(NS(=O)(=O)c1ccc(-c2ccc([N+](=O)[O-])cc2)cc1)C(C)C` (centres undefined), for which the melting point was in the range of 144 to 146 °C.

`NNc1cc(Nc2ccc(F)c(C(F)(F)F)c2)nc(Cl)n1` registered a melting point of 102 to 103 °C.

Regarding `Cn1c2ccccc2c2c(N)c3c(nc21)C=CC3=O`, the melting point was in the range of 279 to 280 °C.

With `O=C1c2cccc(Sc3ccccc3)c2C(=O)c2cccc(Nc3cccc([N+](=O)[O-])c3)c21`, the melting point turned out to be 246 °C.

`CC(=O)OCC1OC(n2c3ncccc3c3c4c(n5cncc5c32)C(=O)N(C)C4=O)C(OC(C)=O)C(OC(C)=O)C1OC(C)=O` (centres undefined): the melting point was 204 °C.

Molecule `O[C@@H]1CN(CCNc2ncccn2)CC[C@H]1NCc1ccccc1` (relative stereo) returned a melting point of 127 °C.

For the molecule `COc1ccc(-c2c(C(C)=O)c(CSc3nccn3C)nc3cc(OC)c(OC)cc23)cc1OC`, the melting point was in the range of 175 to 176 °C.

With `CCC(CC)Nc1c(C)c(C)nc2c1c(C)nn2-c1c(C)cc(C)cc1C`, the melting point was 201 to 205 °C.

Regarding `CCOC(=O)C1=C(N)NC(C)=CC1c1ccccc1C` (centres undefined), the melting point turned out to be 159 °C.

`Cc1ccc(C(=O)Nc2c(NC(=O)CCl)ccc3c2C(=O)c2ccccc2C3=O)cc1` had a melting point of 198 to 199 °C.

For `COC(=O)c1ccc(OCCNC(=O)C2Cc3ccccc3N2S(=O)(=O)c2ccc(-c3ccc(F)cc3)cc2)c(F)c1` (centres undefined), the melting point fell in the range of 82 to 87 °C.

`COC(=O)c1cn2c(C)c(-c3ccccc3)sc2n1` had a melting point of 155 to 157 °C.

`Cn1nc(C(F)(F)F)c(CS(=O)(=O)C2=NOC(C)(C)C2)c1Oc1ccccc1Cl` had a melting point of 67 to 70 °C.

`CN1CCC(Nc2ccc([N+](=O)[O-])cc2)CC1`: the melting point is 153 to 155 °C.

In the case of `CC(C)CC(NC(=O)c1ccc(CBr)cc1)C(=O)NC(C)(C)C#N` (centres undefined), the melting point is 185 to 187 °C.

Turning to `Cc1sc(S(N)(=O)=O)cc1[N+](=O)[O-]`, the melting point was 120 °C.

In the case of `O=C1NC(c2ccccc2)CN1CCO` (centres undefined), the melting point was in the range of 60 to 63 °C.

In turn, `CCCCCCCCCCCCCCCCCCCc1cc(N)cc(CCCCCCCCCCCCCCCCCCC)c1` showed a melting point of 51 to 53 °C.

`CCNc1nc(NCc2ccco2)nc(Nc2ccc3nc(C)sc3c2)n1` came in with a melting point of 97 to 99 °C.

`Cc1cc(C)cc(Oc2c(CO)c(C)[nH]c(=O)c2I)c1` gave a melting point of 248 to 250 °C.

Regarding `CCCCc1cc2c(=O)n3cc(C(=O)O)ccc3nc2s1`, the melting point lay within 250 to 252 °C.

`CC(C)(S)C(=O)NC(=O)[C@@H](N)CS`: the melting point is 124 to 125 °C.

`CSc1c(O)cncc1Oc1ccccc1` gave a melting point of 131 to 133 °C.

`c1ccc(C2NCCNCc3ccccc32)cc1` (centres undefined) registered a melting point of 125 °C.

Molecule `Cc1oc(-c2ccccc2)nc1COc1ccc(Sc2nc(-c3ccccc3)c(CCC(=O)O)s2)cc1` came in with a melting point of 121 to 122 °C.

Molecule `CC(C)(CCc1noc(=O)[nH]1)c1ccc(C(=O)Nc2cn3cc(-n4ccnc4)ccc3n2)cc1` gave a melting point of 283 to 284 °C.

As for `Cn1c(=O)c2cnc(-c3ccccc3)nc2n(C)c1=O`, the melting point was in the range of 279 to 281 °C.

With `CC(C)CC=Cc1c(C(C)C)nc(C(C)C)c(CO)c1-c1ccc(F)cc1`, the melting point lay within 48 to 50 °C.

In the case of `CCOC(=O)N1CCN(c2nc(NC(C)=O)ccc2[N+](=O)[O-])CC1`, the melting point lay within 168 to 169 °C.

The molecule `COC(=O)C1=C(C)NC(C)=NC1c1ccccc1Cl` (centres undefined) came in with a melting point of 225 to 227 °C.

The molecule `COc1c(NC(=O)c2ccc(-c3ccncc3)cc2)cccc1N1CCN(C)CC1` returned a melting point of 153 to 155 °C.

`CCCCNC(=O)[C@H](C)C[C@H](O)[C@H](CC1CCCCC1)NC(=O)[C@H](Cc1cscn1)NC(=O)[C@@H](CC(=O)N1CCN(C)CC1)Cc1ccc(OC)cc1`: the melting point lay in the range of 125 to 126 °C.

Regarding `CN(C(=O)c1cccc(C=O)c1)c1cccc(F)c1`, the melting point was in the range of 115 to 119 °C.

Molecule `O=c1[nH]cc(Cc2ccncc2)c2ccccc12` returned a melting point of 189 to 190 °C.
